Data as given in patent US20250170104A1, “INHIBITORS OF PSEUDOMONAS AERUGINOSA VIRULENCE FACTOR Lasß” (priority 2022, published 2025).
≈ marks a conversion by molar mass, not a printed value. Where two headings read alike, the source gives them in different places.

How the values were obtained:
LasB = LasB (Pseudomonas aeruginosa (strain ATCC 15692 / DSM 22644 / CIP 104116 / JCM 14847 / LMG 12228 / 1C / PRS 101 / PAO1), UniProt P14756); test: In vitro LasB activity assay (fluorogenic substrate); format: biochemical; details: LasB 0.3 nM, substrate 150 μM, mean ± SD
Description: The LasB activity assay was performed as described previously (Nishino N, Powers J C. Pseudomonas aeruginosa elastase. Development of a new substrate, inhibitors, and an affinity ligand. J Biol Chem. 1980 Apr. 25; 255(8):3482-6) using the fluorogenic substrate 2-Aminobenzoyl-L-Alanyl-Glycyl-L-Leucyl-L-Alanyl-para-Nitro-Benzyl-Amide, purchased from Peptides International (Louisville, KY, USA) and vivitide, LLC (Gardner, MA, USA).
Fluorescence intensity was measured for 60 min at 37° C. in black 384-well microtiter plates (Greiner BioOne, Kremsmünster, Austria) using a CLARIOstar microplate reader (BMG Labtech, Ortenberg, Germany) with an excitation wavelength of […] and an emission wavelength of 415±20 nm. The assay was performed in a final volume of 50 μL of assay buffer (50 mM Tris, pH 7.2, 2.5 mM CaCl2), 0.075% Pluronic F-127, 5% DMSO) containing LasB at a final concentration of […] 0.3 nM and the substrate at 150 μM. Before substrate addition, compounds were preincubated with the enzyme at 37° C. for 15 min. Experiments were performed in duplicates and repeated for at least two times. Blank controls without enzyme were performed. After blank subtraction, the slope of samples containing inhibitors (v) was divided by the slope of a simultaneously started uninhibited enzymatic reaction (v0). IC50 values were determined with nonlinear regression using GraphPad Prism 5 (Graph Pad Software, San Diego, CA, USA) and are given as mean values ±standard deviation (SD). The slope factor was constrained to 1.

[1] = Kinetic turbidimetric solubility assay; format: physicochemical; details: PBS
Description: The desired compounds were sequentially diluted in DMSO in a 96-well plate. 1.5 μL of each well were transferred into another 96-well plate and mixed with 148.5 μL of PBS. Plates were shaken for 5 min at 600 rpm at room temperature, and the absorbance at 620 nm was measured. Absorbance values were normalized by blank subtraction and plotted using GraphPad Prism 8.4.2 (GraphPad Software, San Diego, CA, USA). Solubility (S) was determined based on the First X value of AUC function using a threshold of 0.005.

in vitro = in vitro ADME; details: mouse, s9
Description: For the evaluation of combined phase I and phase II metabolic stability, the compound (1 μM) was incubated with 1 mg/mL pooled liver S9 fraction (Xenotech), 2 mM NADPH, 1 mM UDPGA, 10 mM MgCl2, 5 mM GSH and 0.1 mM PAPS at 37° C. for 0, 5, 15, 30 and 60 min. The metabolic stability of Testosterone (1 μM), verapamil (1 μM) and ketoconazol (1 μM) were determined in parallel to confirm the enzymatic activity of the S9 fraction. The incubation was stopped by precipitation of S9 enzymes with 2 volumes of cold acetonitrile containing internal standard (150 nM Diphenhydramine). Samples were stored on ice for 10 min and precipitated protein was removed by centrifugation (15 min, 4° C., 4,000 rpm). The remaining test compound at different time points was analyzed by LC-MS/MS (TSQ Quantum Access MAX, Thermo Fisher, Dreieich, Germany) and used to determine half-life (t½).

purified LasB = purified LasB (Pseudomonas aeruginosa (strain ATCC 15692 / DSM 22644 / CIP 104116 / JCM 14847 / LMG 12228 / 1C / PRS 101 / PAO1), UniProt P14756); test: Ex vivo lung homogenate assay with purified LasB; format: biochemical
Description: The lung homogenate was prepared from pig lung, which was stored at −80° C. After thawing the lung tissue was cut into pieces of approximately 1.5 cm diameter and 0.5 to 1 cm thickness. Subsequently the bits were flash frozen in liquid nitrogen and lyophilized for 48 h.
1.2 g dried tissue was then ball milled using an IKA Tube Drive and the respective 50 mL ball milling tubes. 20 steel balls were used with target rpm of 6000, reversing the spinning direction every 30 seconds for a total of 10 min. After 10 min the tube was detached and inverted to loosen the powder. The ball milling was repeated with the same setup twice again.
To the powdery tissue 50 mL of a 10 mM Tris buffer including 2 mM CaCl2 with a pH of 8.0 was added and the IKA Tube Drive used again with the same settings as described before for 10 min to disperse the tissue powder in the aqueous buffer. The yielded lung homogenate was pipetted into 15 mL falcons and stored at −80° C. until further use.
To perform the LasB activity/inhibition assay a compound dilution was prepared in DMSO yielding a 100 fold concentration of the final concentration in the assay. LasB was diluted from a higher stock solution to a 6 μM stock in the same buffer as used for the lung homogenate. The assay was performed in Eppis. With a stepper pipette 10 μL of the prepared LasB solution was added to the Eppis to yield a final protein concentration of 300 nM. Then 188 μL of thawed lung homogenate was added with a stepper pipette. Finally, 2 μL of the 100 fold compound dilutions were added and mixed by pipetting up and down. The Eppis were incubated at 37° C. with a shaking speed of 1000 rpm for 4 h.
After 4 h, the Eppis were centrifuged at a speed of 14,000 rpm, 4° C. for 10 min to separate the soluble cleaved Elastin fragments from the non-cleaved insoluble part. 100 μL of the obtained supernatant was transferred to new Eppis, and the same volume of concentrated hydrochloric acid added. […]
Peak areas and response ratios were calculated using Xcalibur Quan browser with Amprolium set as internal standard. […]

MMP1 = MMP1 (Homo sapiens (Human), UniProt P03956); test: Selectivity assay: inhibition of MMPs; format: biochemical
Description: (§1) MMPs-1, -2, -3, -7, -8 and -14 along with the SensoLyte 520 Generic MMP Activity Kit*Fluorimetric* were purchased from AnaSpec (Fremont, CA, USA). The assay was performed as described previously (Schönauer E, Kany A M, Haupenthal J, Hüsecken K, Hoppe I J, Voos K, et al. Discovery of a Potent Inhibitor Class with High Selectivity toward Clostridial Collagenases. J Am Chem Soc. 2017 Sep. 13; 139(36):12696-703) using batimastat as a positive control according to the guidelines of the manufacturer.

MMP2 = MMP2 (Homo sapiens (Human), UniProt P08253); test: Selectivity assay: inhibition of MMPs; format: biochemical
Description: as §1

MMP3 = MMP3 (Homo sapiens (Human), UniProt P08254); test: Selectivity assay: inhibition of MMPs; format: biochemical
Description: as §1

HDAC3 = HDAC3 (Homo sapiens (Human), UniProt O15379); test: HDAC inhibition; format: biochemical; details: read-out: Selectivity IC50 HDAC3
Description: (§2) HDAC3 and HDAC8 Inhibitor Screening Assay kits were purchased from Sigma-Aldrich. The assay was performed according to the guidelines of the manufacturer using trichostatin as a positive control. Fluorescence signals were measured in a CLARIOstar plate reader (BMG Labtech).

HDAC8 = HDAC8 (Homo sapiens (Human), UniProt Q9BY41); test: HDAC inhibition; format: biochemical; details: read-out: Selectivity IC50 HDAC8
Description: as §2

ADAM-17 (TACE) = ADAM-17 (TACE) (Homo sapiens (Human), UniProt P78536); test: ADAM-17 (TACE) inhibitor screening assay; format: biochemical; details: read-out: Selectivity IC50 TACE
Description: The ADAM-17 (TACE) Inhibitor Screening Assay Kit was purchased from Sigma-Aldrich. The assay was performed according to the guidelines of the manufacturer using ilomastat as a positive control. Fluorescence signals were measured in a CLARIOstar plate reader (BMG Labtech).

Cytotoxicity assay = format: cell-based; details: human
Description: HepG2, HEK293 or A549 cells (2×10^5 cells per well) were seeded in 24-well, flat-bottomed plates. Culturing of cells, incubations, and OD measurements were performed as described previously (Int. J. Cancer 2007, 121, 206-210). Twenty-four hours after seeding the cells, the incubation was started by the addition of test compound in a final DMSO concentration of 1%. The living cell mass was determined after 48 h. At least two independent measurements were performed for each compound.

P. aeruginosa PA-14 = test: MIC determination assay / antibacterial activity; format: cell-based; details: Pseudomonas aeruginosa, PA14
Description: Assays regarding the determination of the minimum inhibitory concentration (MIC) were performed as described previously (Elgaher W A M, Fruth M, Groh M, Haupenthal J, Hartmann R W. Expanding the scaffold for bacterial RNA polymerase inhibitors: design, synthesis and structure-activity relationships of ureido-heterocyclic-carboxylic acids. RSC Adv. 2013 Dec. 3; 4(5):2177-94). The experiments were based on the P. aeruginosa strain PA14. For the case that no MIC value could be determined due to activity reasons, percentage (%) inhibition at 100 μM (or lower, depending on the solubility of the compounds) was calculated. The OD600 was measured 0 and 16 h after inhibitor addition in a CLARIOstar Platereader (BMG Labtech, Ortenberg, Germany).

[2] = aqueous buffer, kinetic from dmso stock

Chain of LasB (P14756 198-498): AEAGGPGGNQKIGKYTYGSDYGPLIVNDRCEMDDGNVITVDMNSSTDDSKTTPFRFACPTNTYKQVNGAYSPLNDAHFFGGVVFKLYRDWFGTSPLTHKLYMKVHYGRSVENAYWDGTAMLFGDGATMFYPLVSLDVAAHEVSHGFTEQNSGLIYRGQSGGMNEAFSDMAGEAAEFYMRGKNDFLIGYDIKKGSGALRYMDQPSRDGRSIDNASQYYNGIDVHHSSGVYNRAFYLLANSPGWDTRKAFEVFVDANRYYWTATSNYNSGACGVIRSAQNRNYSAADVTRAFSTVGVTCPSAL
Chain of purified LasB (P14756 198-498): as above
Chain of ADAM-17 (TACE) (P78536 whole entry, looked up): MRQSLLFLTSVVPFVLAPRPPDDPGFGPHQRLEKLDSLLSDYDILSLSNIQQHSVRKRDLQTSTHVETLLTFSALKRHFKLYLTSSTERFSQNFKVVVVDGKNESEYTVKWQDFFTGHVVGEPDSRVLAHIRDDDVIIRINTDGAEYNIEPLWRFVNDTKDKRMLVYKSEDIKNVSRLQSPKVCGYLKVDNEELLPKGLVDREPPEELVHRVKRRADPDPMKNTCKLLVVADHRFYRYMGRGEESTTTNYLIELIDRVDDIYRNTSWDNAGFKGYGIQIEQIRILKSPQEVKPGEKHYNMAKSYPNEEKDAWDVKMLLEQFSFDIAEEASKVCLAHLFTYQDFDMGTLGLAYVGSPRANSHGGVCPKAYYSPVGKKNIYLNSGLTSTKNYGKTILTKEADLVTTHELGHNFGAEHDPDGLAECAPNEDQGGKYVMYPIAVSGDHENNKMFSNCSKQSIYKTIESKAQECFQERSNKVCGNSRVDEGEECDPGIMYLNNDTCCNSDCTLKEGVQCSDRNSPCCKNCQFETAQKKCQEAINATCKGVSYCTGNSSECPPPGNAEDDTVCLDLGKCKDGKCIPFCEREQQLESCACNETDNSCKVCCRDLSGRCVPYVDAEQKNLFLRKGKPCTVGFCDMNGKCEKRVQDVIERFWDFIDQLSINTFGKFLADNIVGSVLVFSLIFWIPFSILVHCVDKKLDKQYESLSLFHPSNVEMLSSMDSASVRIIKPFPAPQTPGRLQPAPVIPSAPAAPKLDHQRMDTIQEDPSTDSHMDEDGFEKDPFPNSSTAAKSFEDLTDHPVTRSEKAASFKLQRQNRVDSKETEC
Chain of MMP1 (P03956 100-469): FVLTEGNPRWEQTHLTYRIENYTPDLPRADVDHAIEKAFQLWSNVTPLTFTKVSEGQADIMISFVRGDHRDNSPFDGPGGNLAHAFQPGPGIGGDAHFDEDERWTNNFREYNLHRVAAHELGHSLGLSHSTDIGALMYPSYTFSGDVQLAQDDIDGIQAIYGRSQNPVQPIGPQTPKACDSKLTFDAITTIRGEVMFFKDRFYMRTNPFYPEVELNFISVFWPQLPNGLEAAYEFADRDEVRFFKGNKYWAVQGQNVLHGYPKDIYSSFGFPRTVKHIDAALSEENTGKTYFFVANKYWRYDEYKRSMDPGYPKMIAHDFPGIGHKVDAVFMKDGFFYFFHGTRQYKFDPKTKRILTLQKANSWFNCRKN
Chain of HDAC3 (O15379 whole entry, looked up): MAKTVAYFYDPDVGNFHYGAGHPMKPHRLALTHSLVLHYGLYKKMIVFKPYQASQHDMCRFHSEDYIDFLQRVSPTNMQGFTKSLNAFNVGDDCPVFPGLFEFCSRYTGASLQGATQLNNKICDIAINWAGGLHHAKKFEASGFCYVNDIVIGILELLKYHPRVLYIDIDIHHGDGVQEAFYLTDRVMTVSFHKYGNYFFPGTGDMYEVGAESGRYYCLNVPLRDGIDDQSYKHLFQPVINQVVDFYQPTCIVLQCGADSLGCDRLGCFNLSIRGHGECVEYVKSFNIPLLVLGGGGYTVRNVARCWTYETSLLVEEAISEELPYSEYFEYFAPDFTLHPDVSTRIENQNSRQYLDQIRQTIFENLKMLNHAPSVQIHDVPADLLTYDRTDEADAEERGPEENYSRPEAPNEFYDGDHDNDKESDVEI
Chain of HDAC3 (Q9Y618 whole entry partner, looked up): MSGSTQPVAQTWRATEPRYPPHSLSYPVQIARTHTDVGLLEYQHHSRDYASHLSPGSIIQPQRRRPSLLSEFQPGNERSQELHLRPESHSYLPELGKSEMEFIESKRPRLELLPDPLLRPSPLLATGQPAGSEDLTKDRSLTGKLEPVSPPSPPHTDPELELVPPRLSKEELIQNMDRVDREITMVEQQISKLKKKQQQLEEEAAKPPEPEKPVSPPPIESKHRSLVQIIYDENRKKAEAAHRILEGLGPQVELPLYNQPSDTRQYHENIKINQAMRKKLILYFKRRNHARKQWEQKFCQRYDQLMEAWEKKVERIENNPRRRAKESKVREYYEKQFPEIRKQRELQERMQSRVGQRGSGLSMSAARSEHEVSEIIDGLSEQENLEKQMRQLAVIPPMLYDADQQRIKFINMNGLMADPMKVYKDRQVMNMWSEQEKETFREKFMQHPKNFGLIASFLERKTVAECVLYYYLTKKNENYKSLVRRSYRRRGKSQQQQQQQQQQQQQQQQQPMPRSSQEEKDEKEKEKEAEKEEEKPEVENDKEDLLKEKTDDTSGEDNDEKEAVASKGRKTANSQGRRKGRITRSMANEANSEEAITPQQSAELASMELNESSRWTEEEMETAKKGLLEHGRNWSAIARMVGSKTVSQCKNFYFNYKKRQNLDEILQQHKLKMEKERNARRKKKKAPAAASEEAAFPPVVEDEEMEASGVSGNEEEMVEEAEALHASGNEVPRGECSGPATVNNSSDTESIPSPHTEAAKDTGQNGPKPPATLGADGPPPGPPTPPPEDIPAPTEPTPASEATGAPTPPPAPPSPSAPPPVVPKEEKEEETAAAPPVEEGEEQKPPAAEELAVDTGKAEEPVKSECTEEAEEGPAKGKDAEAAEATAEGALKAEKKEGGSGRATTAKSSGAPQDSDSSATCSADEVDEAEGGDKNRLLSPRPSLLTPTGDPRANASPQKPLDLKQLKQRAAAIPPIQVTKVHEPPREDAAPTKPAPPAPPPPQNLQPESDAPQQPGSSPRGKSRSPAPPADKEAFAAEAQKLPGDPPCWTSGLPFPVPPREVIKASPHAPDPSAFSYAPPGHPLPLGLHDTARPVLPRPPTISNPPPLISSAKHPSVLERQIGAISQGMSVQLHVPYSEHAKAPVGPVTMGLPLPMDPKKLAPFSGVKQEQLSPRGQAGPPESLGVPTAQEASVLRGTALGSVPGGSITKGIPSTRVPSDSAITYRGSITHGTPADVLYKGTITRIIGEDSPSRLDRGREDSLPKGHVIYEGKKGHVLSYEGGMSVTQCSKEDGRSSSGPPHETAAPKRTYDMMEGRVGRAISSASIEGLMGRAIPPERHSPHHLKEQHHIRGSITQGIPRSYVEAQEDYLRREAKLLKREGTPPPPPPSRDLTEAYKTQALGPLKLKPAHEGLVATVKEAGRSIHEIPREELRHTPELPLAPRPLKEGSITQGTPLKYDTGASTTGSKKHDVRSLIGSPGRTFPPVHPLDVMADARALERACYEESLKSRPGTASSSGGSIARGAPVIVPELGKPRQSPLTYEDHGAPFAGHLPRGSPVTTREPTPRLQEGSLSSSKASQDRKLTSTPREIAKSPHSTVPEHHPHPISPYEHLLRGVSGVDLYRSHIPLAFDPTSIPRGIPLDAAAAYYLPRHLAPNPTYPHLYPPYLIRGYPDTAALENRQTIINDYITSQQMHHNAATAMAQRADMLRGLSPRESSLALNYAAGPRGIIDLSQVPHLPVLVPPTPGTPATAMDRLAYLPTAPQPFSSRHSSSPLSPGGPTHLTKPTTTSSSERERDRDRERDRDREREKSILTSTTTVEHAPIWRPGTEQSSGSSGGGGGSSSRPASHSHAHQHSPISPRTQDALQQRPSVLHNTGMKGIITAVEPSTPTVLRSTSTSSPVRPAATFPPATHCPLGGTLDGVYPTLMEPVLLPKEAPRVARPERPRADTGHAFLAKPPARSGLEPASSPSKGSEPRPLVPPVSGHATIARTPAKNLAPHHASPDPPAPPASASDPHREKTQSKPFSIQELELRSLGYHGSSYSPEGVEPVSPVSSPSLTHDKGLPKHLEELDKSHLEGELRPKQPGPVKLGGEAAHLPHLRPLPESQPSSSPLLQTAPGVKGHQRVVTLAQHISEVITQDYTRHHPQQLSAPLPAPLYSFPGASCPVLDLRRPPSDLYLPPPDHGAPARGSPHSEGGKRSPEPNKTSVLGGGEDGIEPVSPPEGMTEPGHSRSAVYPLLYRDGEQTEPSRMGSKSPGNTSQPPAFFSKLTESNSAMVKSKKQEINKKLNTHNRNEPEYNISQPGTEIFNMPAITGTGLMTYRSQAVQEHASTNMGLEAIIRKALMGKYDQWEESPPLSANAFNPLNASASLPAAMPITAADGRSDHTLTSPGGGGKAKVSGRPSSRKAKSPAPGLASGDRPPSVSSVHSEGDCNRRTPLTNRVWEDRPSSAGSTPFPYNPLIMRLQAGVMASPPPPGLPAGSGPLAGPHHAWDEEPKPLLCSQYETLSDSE

For `CC(C)CC(C(=O)NO)C(=O)Nc1ccc(Cn2cc(CNS(=O)(=O)c3ccc(Cl)cc3)nn2)cc1` (centres unmarked) [Compound 161, N-[4-[[4-[[(4-Chlorophenyl)sulfonylamino]methyl]triazol-1-yl]methyl]phenyl]-2-(hydroxycarbamoyl)-4-methyl-pentanamide], the IC50 (LasB) was 0.0017 ± 0.0001 µM, the solubility at 5 min [1, 2] was > 200 µM and the half-life at 1 μM (in vitro) was 33.9 ± 1 min. For the same molecule, the IC50 (purified LasB) was 0.186 µM.
`CC(C)C(C(=O)NO)C(=O)Nc1ccc(Cn2cc(CNS(=O)(=O)c3ccc(I)cc3)nn2)cc1` (centres unmarked) [Compound 182, 2-(Hydroxycarbamoyl)-N-[4-[[4-[[(4-iodophenyl)sulfonylamino]methyl]triazol-1-yl]methyl]phenyl]-3-methyl-butanamide] showed an IC50 (LasB) of 0.0019 ± 0.0001 µM and an IC50 (purified LasB; pig lung homogenate, 300 nM LasB, 4 h, desmosine LC-MSMS, read-out: IC50 ex vivo lung homogenate) of 0.127 µM.
In the case of `CC(C)CC(C(=O)NO)C(=O)Nc1ccc(Cn2cc(CNS(=O)(=O)c3ccc(I)cc3)nn2)cc1` (centres unmarked) [Hit L1, 2-(Hydroxycarbamoyl)-N-[4-[[4-[[(4-iodophenyl)sulfonylamino]methyl]triazol-1-yl]methyl]phenyl]-4-methyl-pentanamide], the IC50 (LasB) is reported as 0.0024 ± 0.0001 µM, the solubility at 5 min [1] is reported as 142 µM (≈ 89 µg/mL) and the solubility at 5 min [1, 2] is reported as 106 ± 19 µM (≈ 66.4 µg/mL). The half-life at 1 μM (in vitro) was 30.1 ± 1.5 min, the IC50 (MMP1) was > 100 µM and the IC50 (MMP2) was > 100 µM. For the same molecule, the IC50 (MMP3) was > 100 µM, the IC50 (HDAC3) was > 100 µM and the IC50 (HDAC8) was > 100 µM. For the same molecule, the IC50 (ADAM-17 (TACE)) was > 100 µM, the IC50 at 48 h (Cytotoxicity assay; A549 cells) was > 100 µM and the IC50 at 48 h (Cytotoxicity assay; HEK293 cells) was > 100 µM. For the same molecule, the IC50 at 48 h (Cytotoxicity assay; HepG2 cells) was > 100 µM and the IC50 (P. aeruginosa PA-14) was > 100 µM.
